Results from PubChem BioAssay (NCI).
Values joined by “and” are separate entries in the source; they are usually repeats but may differ in a detail not shown here. Equal values may be shown once.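 In this assay, cells in 96-well plates receive the compound at five concentrations for 48 hours. Endpoints are linearly interpolated between the surrounding concentrations. Abbreviation: GI50, concentration required for 50% inhibition of growth. At the TGI there is no net growth.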

System: MDA-MB-468 breast
Test: NCI-60 cell line screen, 48 h

C[C@@H](Nc1c(C#N)cnc2ccc(-c3cnc(Cl)c(NS(C)(=O)=O)c3)cc12)c1ccccc1
GI50: 74.5 nM
TGI: 1230 nM

CN(C)C1CCN(C(=O)c2ccc(NC(=O)Nc3ccc(-c4nc(N5CCOCC5)c5cccn5n4)cc3)cc2)CC1
GI50: 18.6 nM
TGI: 86.6 nM

O=C(Nc1ccc(Br)cc1F)c1cc(Cl)ccc1O
GI50: 871 nM
TGI: 4780 nM

CCN1CCN(c2cc(C)c3cc(NC(=O)c4ccc(OC)c(OC)c4)ccc3n2)CC1
GI50: 17700 nM
TGI: > 100000 nM

COc1cc(N=Nc2ccc(O)c3ncccc23)c2ncccc2c1
GI50: 2270 nM
TGI: 6640 nM

COc1cnc2c(c1)C(=O)c1c-2n(CCCNC2=NCCS2)c(=O)c2cc([N+](=O)[O-])ccc12
GI50: 28.3 nM
TGI: 1530 nM

O=c1oc2ccc(-c3ccc(F)cc3F)cc2c(=O)n1-c1cccc(C(F)(F)F)c1
GI50: 2280 nM and 1130 nM
TGI: 5830 nM and 3430 nM

Cc1nnc(Nc2ccc(NC(=O)Nc3ccc(Cl)cc3)cc2)c2ccccc12
GI50: 2840 nM
TGI: 7430 nM

NC(N)=N/N=C/c1c(Cl)cccc1Cl
GI50: 12400 nM
TGI: 26500 nM

O=C(Nc1cc(C(F)(F)F)cc(C(F)(F)F)c1)c1cc(Cl)ccc1O
GI50: 195 nM and 238 nM
TGI: 715 nM and 799 nM

Clc1cc2c(c(CSc3nc4ccccc4n4cccc34)c1)OCOC2
GI50: 2160 nM
TGI: > 100000 nM
